Literature values in patent US11192861B2, “Human plasma kallikrein inhibitors” (BioCryst Pharmaceuticals, Inc., priority 2014, dated 2021).

Tested on: hereditary angioedema (HAE)

Compound | effectiveness in treating HAE (in vivo) | edema in patients with hereditary angioedema (patients with HAE)
NC(N)=NCCC[C@@H](N)C(=O)N[C@@H](CCCN=C(N)N)C(=O)N1CCC[C@H]1C(=O)N1C[C@H](O)C[C@H]1C(=O)NCC(=O)N[C@@H](Cc1cccs1)C(=O)N[C@@H](CO)C(=O)N1Cc2ccccc2C[C@@H]1C(=O)N1[C@H](C(=O)N[C@@H](CCCN=C(N)N)C(=O)O)C[C@@H]2CCCC[C@@H]21 [Icatibant] | effective in treating HAE | 
ecallantide [DX-88] |  | alleviates edema
